Like-named read-outs stand apart in the source and are kept apart here. Marks after values point to notes of the source that are not given here.
Assays:
[1] = tested on: Septoria nodorum; experiment: Fungicidal test, Septoria nodorum (LEPTNO) on wheat, PRCO; type: in vivo
[2] = tested on: Puccinia recondita; experiment: Fungicidal test, Puccinia recondita (PUCCRT) on wheat, PRCO; type: in vivo
[3] = tested on: Musca domestica; conditions: 500 ppm by weight; knockdown assessed 15 minutes after treatment
Experimental: The activities of individual compounds of formula (I) were determined using a variety of pests. With the exception of nematodes, the pests were treated with a liquid composition containing 500 parts per million (ppm) by weight of a compound unless otherwise stated. Each composition was made by dissolving the compound in an acetone and ethanol (50:50 by volume) mixture and diluting the solution with water containing 0.05% by volume of a wetting agent, SYNPERONIC NP8, until the liquid composition contained the required concentration of the compound.
The test procedure adopted with regard to each pest, except nematodes, was essentially the same and composed supporting a number of the pests on a medium which was usually a substrate, a host plant or a foodstuff on which the pests feed, and treating either or both the medium and the pests with a composition. Pest mortality was assessed usually between three and five days after treatment Knockdown of housefly (Musca domestica) was assessed 15 minutes after treatment

[4] = tested on: Rhizoctonia solani; experiment: Fungicidal test, Rhizoctonia solani (RHIZSO) on rice, PRCO; type: in vivo; conditions: METHOD 2 (unbanded)
[5] = tested on: Meloidogyne incognita; experiment: Nematode test, J2 infective juveniles of Meloidogyne incognita, mortality; conditions: 12.5 ppm; J2 infective juveniles suspended in solution; mortality after three days
[6] = tested on: Pyricularia oryzae; type: in vivo; conditions: METHOD 2 (unbanded)
[7] = tested on: Uncinula necator; experiment: Fungicidal test, Uncinula necator (UNCINE) on vines, PRCO; type: in vivo; conditions: METHOD 2 (unbanded)
[8] = tested on: Erysiphe graminis f.sp. tritici; experiment: Fungicidal test, Erysiphe graminis f.sp. tritici (ERYSGT) on wheat, PRCO; type: in vivo; conditions: for ERYSGT 1 d Prot/Foir PRCO: METHOD 2 (unbanded); for ERYSGT 6 hr Prot/Foir PRCO: METHOD 1 (values marked *)
[9] = tested on: Phytophthora infestans lycopersici; type: in vivo
[10] = tested on: Plasmopara viticola; experiment: Fungicidal test, Plasmopara viticola (PLASVI) on vines, PRCO; type: in vivo
[11] = tested on: Venturia inaequalis; experiment: Fungicidal test, Venturia inaequalis (VENTIN) on apples, PRCO; type: in vivo; conditions: METHOD 2 (unbanded)

SMILES	LEPTNO 1 d Prot/Foir PRCO ([1]; METHOD 2 (unbanded))	PUCCRT 1 d Prot/Foir PRCO ([2]; METHOD 2 (unbanded))	MUSCDO AC = Musca domestica (knockdown), score [3]	RHIZSO 1 d Prot/Foir PRCO [4]	MELGIN = Meloidogyne incognita, grading of mortality (score) [5]	PYRIOR 1 d Prot/Foir PRCO [6]	UNCINE 1 d Prot/Foir PRCO [7]	ERYSGT 1 d Prot/Foir PRCO [8]	PHYTIN 1 d Prot/Foir PRCO ([9]; METHOD 2 (unbanded))	PLASVI 1 d Prot/Foir PRCO ([10]; METHOD 1 (values marked *))	LEPTNO 1 d Prot/Foir PRCO ([1]; METHOD 1 (values marked *))	PUCCRT 1 d Prot/Foir PRCO ([2]; METHOD 1 (values marked *))	VENTIN 1 d Prot/Foir PRCO [11]	ERYSGT 6 hr Prot/Foir PRCO [8]	PHYTIN 1 d Prot/Foir PRCO ([9]; METHOD 1 (values marked *))	PLASVI 1 d Prot/Foir PRCO ([10]; METHOD 2 (unbanded))
Cc1nsc(NC(=O)Cc2ccc3oc(CF)nc3c2)c1Cl [73(A3)]	57	100	0 (0 indicates less than 40% mortality)	0	0 (0 indicates less than 40% mortality)	100	93	93	100	–	–	–	–	–	–	–
Cc1nc2cc(CC(=O)Nc3snc(C)c3Cl)ccc2s1 [2(A13)]	62	99	0 (0 indicates less than 40% mortality)	43	5 (5 indicates 40-79% mortality)	47	72	31	100	–	–	–	–	–	–	–
Cc1nsc(NC(=O)Cc2ccc3oc(-c4ccc(Cl)cc4Cl)nc3c2)c1Cl [257(A3)]	–	–	0 (0 indicates less than 40% mortality)	11	5 (5 indicates 40-79% mortality)	–	61	–	–	79*	0*	100*	0	0*	0*	–
Cc1nsc(NC(=O)Cc2ccc3oc(-c4ccccc4)nc3c2)c1Cl [248(A3)]	–	–	0 (0 indicates less than 40% mortality)	7	0 (0 indicates less than 40% mortality)	–	7	–	–	97*	0*	100*	100	0*	17*	–
CSCCc1nc2cc(CC(=O)Nc3snc(C)c3Cl)ccc2o1 [172(A3)]	10	96	5 (5 indicates 40-79% mortality)	–	5 (5 indicates 40-79% mortality)	19	36	40	100	–	–	–	69	–	–	44
Cc1nsc(NC(=O)Cc2ccc3oc(COc4ccccc4)nc3c2)c1Cl [140(A3)]	13	96	0 (0 indicates less than 40% mortality)	0	0 (0 indicates less than 40% mortality)	–	99	44	–	–	–	–	70	–	–	63
CSc1nc2cc(CC(=O)Nc3snc(C)c3Cl)ccc2o1 [220(A3)]	17	–	5 (5 indicates 40-79% mortality)	0	0 (0 indicates less than 40% mortality)	–	−5	12	–	–	–	100*	11	–	100*	6
CCc1nc2cc(CC(=O)Nc3snc(C)c3Cl)ccc2o1 [3(A3)]	33	98	9 (9 indicates 80-100% mortality)	0	0 (0 indicates less than 40% mortality)	–	27	4	–	–	–	–	67	–	–	14

Source: patent publication US6544989B2, “Benzazoles: benzoxazole, benzthiazole and benzimidazole derivatives” (Syngenta Limited, priority 1998, dated 2003)
